SMILES strings stand for the structures.

In general, IC50 refers to the midpoint of a concentration-inhibition curve.

Sequence of Human TrkA Protein (P04629 33-796): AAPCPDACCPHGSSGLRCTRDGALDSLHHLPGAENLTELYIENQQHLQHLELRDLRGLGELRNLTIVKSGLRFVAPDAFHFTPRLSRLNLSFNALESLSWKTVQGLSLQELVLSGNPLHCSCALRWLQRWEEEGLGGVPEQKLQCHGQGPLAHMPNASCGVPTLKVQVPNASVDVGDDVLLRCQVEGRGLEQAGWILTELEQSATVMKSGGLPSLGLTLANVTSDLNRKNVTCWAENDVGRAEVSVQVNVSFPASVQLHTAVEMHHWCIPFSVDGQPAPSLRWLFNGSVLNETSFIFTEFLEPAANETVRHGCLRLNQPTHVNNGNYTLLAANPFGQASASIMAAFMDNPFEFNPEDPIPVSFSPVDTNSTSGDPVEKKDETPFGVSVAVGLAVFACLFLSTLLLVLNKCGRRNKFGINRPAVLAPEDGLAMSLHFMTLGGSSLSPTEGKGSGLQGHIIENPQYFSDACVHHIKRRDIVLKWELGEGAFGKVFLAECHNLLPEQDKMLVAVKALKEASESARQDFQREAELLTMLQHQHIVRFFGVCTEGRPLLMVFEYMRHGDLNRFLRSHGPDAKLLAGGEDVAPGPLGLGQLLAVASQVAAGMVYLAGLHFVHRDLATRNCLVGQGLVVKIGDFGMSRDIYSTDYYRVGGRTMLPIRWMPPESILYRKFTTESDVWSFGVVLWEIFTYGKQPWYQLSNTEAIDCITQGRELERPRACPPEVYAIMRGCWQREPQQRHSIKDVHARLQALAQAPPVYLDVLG

This assay concerns the target Human TrkA Protein (Homo sapiens (Human), UniProt P04629). Nature of the assay: Evaluation of Binding Activity for Human TrkA Protein (TrkA LanthaScreen Eu Kinase Binding Assay). Conditions: TrkA enzyme, Kinase Tracer 236, TR-FRET, 60 minutes at room temperature. The protocol:
(Pharmacological Experimental Example 1): Evaluation of Binding Activity for Human TrkA Protein
Measurement was carried out using TrkA LanthaScreen (registered trademark) Eu Kinase Binding Assay (ThermoFisher SCIENTIFIC). To a 384 well plate (Corning), 2.5 μL of the test compound having various concentrations and diluted with Kinase buffer (ThermoFisher SCIENTIFIC) and 2.5 μL of 15 nM TrkA enzyme (ThermoFisher SCIENTIFIC) were added. Moreover, […] Eu-anti-His Tag antibody (ThermoFisher SCIENTIFIC) and 5 μL of 30 nM Kinase (registered trademark) Tracer 236 (ThermoFisher SCIENTIFIC) were added, followed by reaction at room temperature for 60 minutes. After the reaction, the fluorescence intensity of Europium (Emission wavelength 615 nm) and TR-FRET (Emission wavelength 665 nm) with an excitation wavelength of 340 nm were measured with EnVision 2100 (PerkinElmer) to calculate the fluorescence ratio as the amount of the test compound and the TrkA enzyme bonded. The inhibitory activity (IC50 value) of each test compound was calculated with the fluorescence ratio of the well to which a solvent was added instead of the test compound being 0% and the fluorescence ratio of the well without addition of the TrkA protein being 100%.
In Table 1, […] mean Compounds 1 to 62 synthesized in accordance with Examples 1 to 62 described later.
Background: TR-FRET usually uses a lanthanide donor and a delayed reading to cut background.
On to `Cc1cc(NC(=O)N[C@@H]2c3ccccc3C(C)(C)C[C@H]2O)c(-c2ccccc2)nc1-c1cnc(O)nc1` [Compound 19, 1-((1R,2R)-2-hydroxy-4,4-dimethyl-1,2,3,4-tetrahydronaphthalen-1-yl)-3-(6-(2-hydroxypyrimidin-5-yl)-5-methyl-2-phenylpyridin-3-yl)urea], for which the IC50 is ≤ 50 nM.

On to `Cc1cc(NC(=O)N[C@@H]2c3cc(F)c(F)cc3C(C)(C)C[C@H]2O)c(-c2ccccc2)nc1-c1cnn(C)c1` (racemic) [Compound 51, rac-1-((1R,2R)-6,7-difluoro-2-hydroxy-4,4-dimethyl-1,2,3,4-tetrahydronaphthalen-1-yl)-3-(5-methyl-6-(1-methyl-1H-pyrazol-4-yl)-2-phenylpyridin-3-yl)urea], for which the IC50 was ≤ 50 nM.

Consider `Cc1ccc(-c2nc(-c3ccccc3)c(NC(=O)N[C@@H]3c4ccccc4C(C)(C)C[C@H]3O)cc2C)cn1` [Compound 12, 1-(3,6′-dimethyl-6-phenyl-[2,3′-bipyridin]-5-yl)-3-((1R,2R)-2-hydroxy-4,4-dimethyl-1,2,3,4-tetrahydronaphthalen-1-yl)urea], for which the IC50 is ≤ 50 nM.

Consider `Cc1cnc(-c2ccccc2)c(NC(=O)N[C@@H]2c3ccccc3C(C)(C)C[C@H]2O)c1` (racemic) [Compound 2, rac-1-((1R,2R)-2-hydroxy-4,4-dimethyl-1,2,3,4-tetrahydronaphthalen-1-yl)-3-(5-methyl-2-phenylpyridin-3-yl)urea], for which the IC50 is ≤ 50 nM.

Regarding `Cc1ncc(-c2nc(C3CCOCC3)c(NC(=O)N[C@@H]3c4ccccc4C(C)(C)C[C@H]3O)cc2C)cn1` (racemic) [Compound 28, rac-1-((1R,2R)-2-hydroxy-4,4-dimethyl-1,2,3,4-tetrahydronaphthalen-1-yl)-3-(5-methyl-6-(2-methylpyrimidin-5-yl)-2-(tetrahydro-2H-pyran-4-yl)pyridin-3-yl)urea], the IC50 is ≤ 50 nM.

`Cc1cc(NC(=O)N[C@@H]2c3ccccc3C(C)(C)C[C@H]2O)c(-c2ccccc2)nc1-c1cn[nH]c1` (racemic) [Compound 5, rac-1-((1R,2R)-2-hydroxy-4,4-dimethyl-1,2,3,4-tetrahydronaphthalen-1-yl)-3-(5-methyl-6-(1H-pyrazol-4-yl)-2-phenylpyridin-3-yl)urea]: the IC50 was ≤ 50 nM.

On to `Cc1cnc(-c2ccccc2)c(NC(=O)N[C@@H]2c3cc(Br)ccc3C(C)(C)C[C@H]2O)c1` (racemic) [Compound 32, rac-1-((1R,2R)-7-bromo-2-hydroxy-4,4-dimethyl-1,2,3,4-tetrahydronaphthalen-1-yl)-3-(5-methyl-2-phenylpyridin-3-yl)urea], for which the IC50 is ≤ 50 nM.

As for `Cc1cnc(-c2ccccc2)c(NC(=O)N[C@@H]2c3cc(F)c(F)cc3C(C)(C)C[C@H]2O)c1` (racemic) [Compound 37, rac-1-((1R,2R)-6,7-difluoro-2-hydroxy-4,4-dimethyl-1,2,3,4-tetrahydronaphthalen-1-yl)-3-(5-methyl-2-phenylpyridin-3-yl)urea], the IC50 was ≤ 50 nM.

On to `Cc1ncc(-c2nc(-c3ccccc3)c(NC(=O)N[C@@H]3c4cc(F)ccc4C(C)(C)C[C@H]3O)cc2C)cn1` (racemic) [Compound 34a], for which the IC50 is ≤ 50 nM.

Turning to `COCc1ccc2c(c1)[C@@H](NC(=O)Nc1cc(C)cnc1C1CCOCC1)[C@H](O)CC2(C)C` (racemic) [Compound 33, rac-1-((1R,2R)-2-hydroxy-7-(methoxymethyl)-4,4-dimethyl-1,2,3,4-tetrahydronaphthalen-1-yl)-3-(5-methyl-2-(tetrahydro-2H-pyran-4-yl)pyridin-3-yl)urea], the IC50 is ≤ 50 nM.

On to `Cc1cc(NC(=O)N[C@@H]2c3cc(F)c(F)cc3C(C)(C)C[C@H]2O)c(C2CCOCC2)nc1-c1cn[nH]c1` (racemic) [Compound 61a], for which the IC50 fell in the range of 50 to 1000 nM.

Regarding `Cc1cc(NC(=O)N[C@@H]2c3ccccc3C(C)(C)C[C@H]2O)c(C2CCOCC2)nc1-c1ccc(O)nc1` (racemic) [Compound 31, rac-1-(6′-hydroxy-3-methyl-6-(tetrahydro-2H-pyran-4-yl)-[2,3′-bipyridin]-5-yl)-3-((1R,2R)-2-hydroxy-4,4-dimethyl-1,2,3,4-tetrahydronaphthalen-1-yl)urea], the IC50 was ≤ 50 nM.

`Cc1cnc(C2CCOCC2)c(NC(=O)N[C@@H]2c3cc(F)c(F)cc3C(C)(C)C[C@H]2O)c1` (racemic) [Compound 57, rac-1-((1R,2R)-6,7-difluoro-2-hydroxy-4,4-dimethyl-1,2,3,4-tetrahydronaphthalen-1-yl)-3-(5-methyl-2-(tetrahydro-2H-pyran-4-yl)pyridin-3-yl)urea] returned an IC50 of 50 to 1000 nM.

For the molecule `Cc1cc(NC(=O)N[C@@H]2c3ccccc3C(C)(C)C[C@H]2O)c(-c2ccccc2)nc1-c1ccnc(C(F)(F)F)c1` [Compound 17, 1-((1R,2R)-2-hydroxy-4,4-dimethyl-1,2,3,4-tetrahydronaphthalen-1-yl)-3-(3-methyl-6-phenyl-2′-(trifluoromethyl)-[2,4′-bipyridin]-5-yl)urea], the IC50 was ≤ 50 nM.

As to `Cc1cc(NC(=O)N[C@@H]2c3ccccc3C(C)(C)C[C@H]2O)c(-c2ccccc2)nc1-c1cnn(C)c1` [Compound 10, 1-((1R,2R)-2-hydroxy-4,4-dimethyl-1,2,3,4-tetrahydronaphthalen-1-yl)-3-(5-methyl-6-(1-methyl-1H-pyrazol-4-yl)-2-phenylpyridin-3-yl)urea], the IC50 is ≤ 50 nM.

Consider `Cc1ncc(-c2nc(-c3ccccc3)c(NC(=O)N[C@@H]3c4ccc(F)cc4C(C)(C)C[C@H]3O)cc2C)cn1` (racemic) [Compound 35a], for which the IC50 was ≤ 50 nM.

On to `Cc1cc(NC(=O)N[C@@H]2c3ccccc3C(C)(C)C[C@H]2O)c(-c2ccccc2)nc1-c1cnc(C(C)(C)O)nc1` [Compound 21, 1-((1R,2R)-2-hydroxy-4,4-dimethyl-1,2,3,4-tetrahydronaphthalen-1-yl)-3-(6-(2-(2-hydroxypropan-2-yl)pyrimidin-5-yl)-5-methyl-2-phenylpyridin-3-yl)urea], for which the IC50 was ≤ 50 nM.

In the case of `Cc1ncc(-c2nc(-c3ccccc3)c(NC(=O)N[C@@H]3c4ccccc4C(C)(C)C[C@H]3O)cc2C)cn1` [Compound 9, 1-((1R,2R)-2-hydroxy-4,4-dimethyl-1,2,3,4-tetrahydronaphthalen-1-yl)-3-(5-methyl-6-(2-methylpyrimidin-5-yl)-2-phenylpyridin-3-yl)urea], the IC50 was ≤ 50 nM.

Take `Cc1cc(NC(=O)N[C@@H]2c3cc(F)c(F)cc3C(C)(C)C[C@H]2O)c(-c2ccccc2)nc1C(N)=O` (racemic) [Compound 40, rac-5-(3-((1R,2R)-6,7-difluoro-2-hydroxy-4,4-dimethyl-1,2,3,4-tetrahydronaphthalen-1-yl)ureido)-3-methyl-6-phenylpicolinamide]: the IC50 was ≤ 50 nM.

`Cc1cc(NC(=O)N[C@@H]2c3cc(F)c(F)cc3C(C)(C)C[C@H]2O)c(C2CCOCC2)nc1-c1cnc(O)nc1` (racemic) [Compound 62, rac-1-((1R,2R)-6,7-difluoro-2-hydroxy-4,4-dimethyl-1,2,3,4-tetrahydronaphthalen-1-yl)-3-(6-(2-hydroxypyrimidin-5-yl)-5-methyl-2-(tetrahydro-2H-pyran-4-yl)pyridin-3-yl)urea] came in with an IC50 of 50 to 1000 nM.

`Cc1cc(NC(=O)N[C@@H]2c3ccccc3C(C)(C)C[C@H]2O)c(C2CCOCC2)nc1-c1cnn(C)c1` (racemic) [Compound 29, rac-1-((1R,2R)-2-hydroxy-4,4-dimethyl-1,2,3,4-tetrahydronaphthalen-1-yl)-3-(5-methyl-6-(1-methyl-1H-pyrazol-4-yl)-2-(tetrahydro-2H-pyran-4-yl)pyridin-3-yl)urea]: the IC50 was ≤ 50 nM.

For the molecule `Cc1cc(NC(=O)N[C@@H]2c3ccccc3C(C)(C)C[C@H]2O)c(-c2ccccc2)nc1-c1cnn(C)c1` (racemic) [Compound 4, rac-1-((1R,2R)-2-hydroxy-4,4-dimethyl-1,2,3,4-tetrahydronaphthalen-1-yl)-3-(5-methyl-6-(1-methyl-1H-pyrazol-4-yl)-2-phenylpyridin-3-yl)urea], the IC50 is ≤ 50 nM.

(Values after patent publication US10399945B2, “Tetrahydronaphthyl urea derivative” (MOCHIDA PHARMACEUTICAL CO., LTD., priority 2017, dated 2019).)
